From patent US20090117563A1, “Identification of TRPML3 (MCOLN3) as a Salty Taste Receptor and Use in Assays for Identifying Taste (Salty) Modulators and/or Therapeutics that Modulate Sodium Transport, Absorption or Excretion and/or Aldosterone and/or Vasopressin Production or Release” (priority 2007, published 2009)

Experiments:
A419P TRPML3 = target: T1, A419P TRPML3 (Homo sapiens, UniProt Q8TDD5, A419P); test: FLIPR membrane potential dye assay, HEK293 cells expressing A419P-TRPML3; format: cell-based; conditions: amiloride
T1 construct: expressed in transfected cells
T1 sequence (Q8TDD5 1-553 A419P): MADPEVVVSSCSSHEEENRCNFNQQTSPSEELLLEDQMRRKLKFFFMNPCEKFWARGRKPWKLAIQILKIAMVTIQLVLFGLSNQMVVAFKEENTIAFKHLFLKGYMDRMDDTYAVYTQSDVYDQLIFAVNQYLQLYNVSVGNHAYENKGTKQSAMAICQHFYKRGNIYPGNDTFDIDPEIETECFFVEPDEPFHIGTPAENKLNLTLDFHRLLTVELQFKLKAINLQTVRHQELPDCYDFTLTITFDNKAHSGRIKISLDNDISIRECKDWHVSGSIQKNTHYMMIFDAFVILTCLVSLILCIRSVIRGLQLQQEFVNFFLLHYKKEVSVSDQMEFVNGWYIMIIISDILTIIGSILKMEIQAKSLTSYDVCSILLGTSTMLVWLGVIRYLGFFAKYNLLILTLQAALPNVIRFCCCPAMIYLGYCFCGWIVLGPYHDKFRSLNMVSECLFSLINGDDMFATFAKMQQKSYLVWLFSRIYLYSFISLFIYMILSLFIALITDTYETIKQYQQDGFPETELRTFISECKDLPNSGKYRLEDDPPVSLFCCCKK
Excerpt: Specific cell-based assays for the discovery of TRPML3 modulators were developed which that could ultimately be used in food and beverages to modulate saltiness perception. A419P-TRPML3 function was monitored in HEK293 cells transiently transfected or transduced with the gene encoding A419P-TRPML3 and using specific membrane potential dyes (FMPs; Molecular Devices).
(§1) HEK293 cells were transiently transfected with RFP, αENaC or A419P-TRPML3 and were loaded with a membrane potential dye (R-8034; Molecular Devices) in HBSS at room temperature for 30 minutes. Membrane potential (fluorescent signal) was monitored on a FLIPR system (Molecular Devices).
(§2) HEK293 cells were transiently transfected with RFP or A419P-TRPML3 and were loaded with a membrane potential dye (R-8034; Molecular Devices) in HBSS at room temperature for 30 minutes. Membrane potential (fluorescent signal) was monitored on a FLIPR system (Molecular Devices).
as §2, with “HBSS, NMDG and increasing concentrations of gadolinium were added to the cells and resulting changes in membrane” for “Membrane”
as §1, with “RFP, A419P-TRPML3 or” for “RFP,”, “plasmid” for “or A419P-TRPML3”, “HBSS (control), 3 mM gadolinium and 30 uM Amiloride were added to the cells and resulting changes in membrane” for “Membrane”

αENaC = target: T2, αENaC (Homo sapiens, UniProt P37088); test: FLIPR membrane potential dye assay, HEK293 cells transfected with αENaC; format: cell-based; conditions: 30 uM Amiloride; αENaC versus A419P-TRPML3 transfected cells
T2 construct: expressed in transfected cells; host or cells: HEK293, transient transfection
T2 sequence (P37088 whole entry): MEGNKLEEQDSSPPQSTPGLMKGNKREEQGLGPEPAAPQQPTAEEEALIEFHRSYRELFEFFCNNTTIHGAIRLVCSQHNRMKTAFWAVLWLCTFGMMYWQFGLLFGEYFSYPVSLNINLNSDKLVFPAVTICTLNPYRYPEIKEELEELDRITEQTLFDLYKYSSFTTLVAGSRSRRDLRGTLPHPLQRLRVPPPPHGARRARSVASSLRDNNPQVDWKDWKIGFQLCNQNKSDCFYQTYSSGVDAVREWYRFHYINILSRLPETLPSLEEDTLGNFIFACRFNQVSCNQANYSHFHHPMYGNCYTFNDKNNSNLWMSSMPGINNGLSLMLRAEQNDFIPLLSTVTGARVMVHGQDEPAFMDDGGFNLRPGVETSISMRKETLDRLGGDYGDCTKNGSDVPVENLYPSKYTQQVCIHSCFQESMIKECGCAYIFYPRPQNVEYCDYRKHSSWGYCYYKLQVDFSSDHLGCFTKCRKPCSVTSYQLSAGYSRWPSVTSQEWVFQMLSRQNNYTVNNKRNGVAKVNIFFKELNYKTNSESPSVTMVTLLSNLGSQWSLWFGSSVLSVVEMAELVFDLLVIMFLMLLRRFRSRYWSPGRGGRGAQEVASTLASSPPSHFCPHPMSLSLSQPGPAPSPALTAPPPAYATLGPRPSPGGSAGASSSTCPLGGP
Description: as §1
as §1, with “RFP, A419P-TRPML3 or” for “RFP,”, “plasmid” for “or A419P-TRPML3”, “HBSS (control), 3 mM gadolinium and 30 uM Amiloride were added to the cells and resulting changes in membrane” for “Membrane”

human TRPML3 = target: T3, human TRPML3 (Homo sapiens, UniProt Q8TDD5); test: Whole cell patch clamp electrophysiology of cells expressing human TRPML3; format: cell-based
T3 construct: expressed in transfected cells
T3 sequence (Q8TDD5 1-553): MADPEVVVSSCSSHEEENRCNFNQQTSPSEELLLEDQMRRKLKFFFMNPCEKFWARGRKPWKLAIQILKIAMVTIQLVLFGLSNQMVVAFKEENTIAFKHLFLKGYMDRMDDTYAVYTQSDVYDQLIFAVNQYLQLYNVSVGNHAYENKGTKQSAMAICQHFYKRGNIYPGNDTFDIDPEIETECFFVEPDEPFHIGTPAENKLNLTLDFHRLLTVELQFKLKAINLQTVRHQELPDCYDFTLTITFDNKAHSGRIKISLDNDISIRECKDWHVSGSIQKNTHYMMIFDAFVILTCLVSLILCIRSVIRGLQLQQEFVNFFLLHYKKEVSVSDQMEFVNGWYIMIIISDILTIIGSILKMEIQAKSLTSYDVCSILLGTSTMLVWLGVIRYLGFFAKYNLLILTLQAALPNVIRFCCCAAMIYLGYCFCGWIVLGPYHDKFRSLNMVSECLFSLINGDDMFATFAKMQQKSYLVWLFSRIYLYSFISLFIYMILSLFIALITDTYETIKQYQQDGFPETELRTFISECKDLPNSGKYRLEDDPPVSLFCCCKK
Excerpt: The whole cell voltage clamp technique is an electrophysiology method that measures the macroscopic electrical current flowing across the entire plasma membrane though protein channels. Live mammalian cells are placed in a special microscope chamber containing extracellular solution. Guided by a micromanipulator and under visual control, a small diameter glass pipette filled with an electrically conductive salt solution is first attached to the cell membrane using gentle negative pressure resulting in a high resistance gigaOhm seal. The membrane patch within the pipette is disrupted using further suction resulting in the whole cell patch clamp configuration. The whole cell patch clamp configuration allows the combined measurement of all ion channels proteins within the membrane or macroscopic current. Using the patch clamp amplifier in combination with the whole-cell patch clamp configuration allows the operator to control the voltage, or potential difference across the entire cell membrane, as well as the both the internal and external ionic composition of the cell. […]

[1] = test system: human salty taste (sodium chloride taste intensity); conditions: concentrations that specifically modulate ENaC function; cited from earlier work
[2] = test system: human salty taste (sodium chloride taste intensity); test: Human salty taste perception (perceived salt intensity); format: in vivo; conditions: tested at 300-fold (amiloride) and 3000-fold above IC50 values for alpha beta gamma ENaC
Excerpt: Unlike other mammals, amiloride only slightly reduces the intensity of sodium chloride taste, i.e., by about 15-20% when used at concentrations that specifically modulate ENaC function (Halpern, B. P. (1998) Neuroscience and Behavioral Reviews. 23: 5-47). […] Based thereon, it was theorized that other (ENaC genes) were involved in human salty taste perception.

[3] = target: T4, Homo sapiens TRPML3 A419P, expressed in HEK293 cells (human, UniProt Q8TDD5 1-553); test: cell-based or functional assay
T4 sequence: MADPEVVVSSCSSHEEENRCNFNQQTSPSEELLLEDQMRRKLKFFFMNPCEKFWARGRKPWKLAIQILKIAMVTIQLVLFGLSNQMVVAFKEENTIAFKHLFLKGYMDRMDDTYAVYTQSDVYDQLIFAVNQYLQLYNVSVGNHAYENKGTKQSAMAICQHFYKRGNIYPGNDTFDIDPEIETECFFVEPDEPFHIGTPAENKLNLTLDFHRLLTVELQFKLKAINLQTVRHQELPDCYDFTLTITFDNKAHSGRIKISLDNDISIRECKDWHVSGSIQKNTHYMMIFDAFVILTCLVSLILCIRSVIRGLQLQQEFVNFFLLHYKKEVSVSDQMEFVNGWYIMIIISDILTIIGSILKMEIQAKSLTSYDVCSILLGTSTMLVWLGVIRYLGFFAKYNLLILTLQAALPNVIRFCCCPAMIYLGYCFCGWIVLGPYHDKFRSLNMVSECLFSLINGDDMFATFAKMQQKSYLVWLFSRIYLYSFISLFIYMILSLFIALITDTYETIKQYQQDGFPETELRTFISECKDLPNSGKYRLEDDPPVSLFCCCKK

Molecule	effect on the increased basal fluorescence elicited by A419P-TRPML3 (A419P TRPML3)	effect on basal fluorescence counts, specificity (αENaC)	block of TRPML3 sodium conductance (current-voltage curves) (human TRPML3; 30 uM amiloride)	block of TRPML3 (human TRPML3; no concentration given)	reduction of the intensity of sodium chloride taste [1]	effect on perceived human salt intensity [2]	inward currents, whole cell patch clamp, HEK293 cells coexpressing A419P (0.5 ug) and WT (1.5 ug) TRPML3 cDNAs [3]
N=C(N)NC(=O)c1nc(Cl)c(N)nc1N [amiloride]	no effect	preferentially reduces basal fluorescence counts	not blocked	not blocked	15-20%	did not elicit a significant effect	
NC(=Nc1ccccc1)NC(=O)c1nc(Cl)c(N)nc1N [phenamil]						did not elicit a significant effect	
Homo sapiens TRPML3 (NM_018298), wild-type, non codon optimized cDNA, expressed in HEK293 cells (other) MADPEVVVSSCSSHEEENRCNFNQQTSPSEELLLEDQMRRKLKFFFMNPCEKFWARGRKPWKLAIQILKIAMVTIQLVLFGLSNQMVVAFKEENTIAFKHLFLKGYMDRMDDTYAVYTQSDVYDQLIFAVNQYLQLYNVSVGNHAYENKGTKQSAMAICQHFYKRGNIYPGNDTFDIDPEIETECFFVEPDEPFHIGTPAENKLNLTLDFHRLLTVELQFKLKAINLQTVRHQELPDCYDFTLTITFDNKAHSGRIKISLDNDISIRECKDWHVSGSIQKNTHYMMIFDAFVILTCLVSLILCIRSVIRGLQLQQEFVNFFLLHYKKEVSVSDQMEFVNGWYIMIIISDILTIIGSILKMEIQAKSLTSYDVCSILLGTSTMLVWLGVIRYLGFFAKYNLLILTLQAALPNVIRFCCCAAMIYLGYCFCGWIVLGPYHDKFRSLNMVSECLFSLINGDDMFATFAKMQQKSYLVWLFSRIYLYSFISLFIYMILSLFIALITDTYETIKQYQQDGFPETELRTFISECKDLPNSGKYRLEDDPPVSLFCCCKK							2 fold against A419P cDNA alone
